Test results as given in ChEMBL document CHEMBL1148572, “1-((S)-2-aminopropyl)-1H-indazol-6-ol: a potent peripherally acting 5-HT2 receptor agonist with ocular hypotensive activity” (J Med Chem, 2006).
pEC50, pIC50, pKi: −log10 of the molar value.

Columns and labels:
[1] = molecular target: Glutamate receptor ionotropic kainate (Homo sapiens) (UniProt P39086+Q16478+Q16099+Q13002+Q13003); experiment: Inhibition of kainate receptor at 100 nM; type: protein-complex assay
[2] = molecular target: Dopamine receptor (Homo sapiens) (UniProt P14416+P35462+P21918+P21917+P21728); experiment: Inhibition of non selective binding to dopamine receptor at 100 nM; type: protein assay
[3] = molecular target: Serotonin 3 (5-HT3) receptor; experiment: Inhibitory activity against 5HT3 receptor; type: protein-complex assay, Homo sapiens
[4] = molecular target: T1, Cysteinyl leukotriene receptor 1 (Homo sapiens) (UniProt Q9Y271); experiment: Inhibition of leukotriene D4 at 10 uM
T1 sequence (whole entry): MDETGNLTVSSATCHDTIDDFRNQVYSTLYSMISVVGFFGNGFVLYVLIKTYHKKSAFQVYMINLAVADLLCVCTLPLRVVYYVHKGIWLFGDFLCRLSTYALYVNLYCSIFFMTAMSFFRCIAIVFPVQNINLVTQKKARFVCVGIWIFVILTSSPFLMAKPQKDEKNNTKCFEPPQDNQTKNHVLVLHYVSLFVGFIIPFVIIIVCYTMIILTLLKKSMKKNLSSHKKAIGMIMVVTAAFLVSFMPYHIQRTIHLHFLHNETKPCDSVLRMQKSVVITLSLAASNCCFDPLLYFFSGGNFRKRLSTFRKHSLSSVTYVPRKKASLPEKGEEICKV

[5] = molecular target: GABA-A receptor; agonist GABA site (Homo sapiens) (UniProt P14867+P47870+P28472+P48169+P34903+P18505+P47869+P31644+Q16445); experiment: Inhibition of agonist site of GABAA receptor at 1 nM; type: functional
[6] = molecular target: T2, 5-hydroxytryptamine receptor 1A (Homo sapiens) (UniProt P08908); experiment: Inhibition of forskolin activated adenylate cyclase at 1 nM; type: functional
T2 sequence (whole entry): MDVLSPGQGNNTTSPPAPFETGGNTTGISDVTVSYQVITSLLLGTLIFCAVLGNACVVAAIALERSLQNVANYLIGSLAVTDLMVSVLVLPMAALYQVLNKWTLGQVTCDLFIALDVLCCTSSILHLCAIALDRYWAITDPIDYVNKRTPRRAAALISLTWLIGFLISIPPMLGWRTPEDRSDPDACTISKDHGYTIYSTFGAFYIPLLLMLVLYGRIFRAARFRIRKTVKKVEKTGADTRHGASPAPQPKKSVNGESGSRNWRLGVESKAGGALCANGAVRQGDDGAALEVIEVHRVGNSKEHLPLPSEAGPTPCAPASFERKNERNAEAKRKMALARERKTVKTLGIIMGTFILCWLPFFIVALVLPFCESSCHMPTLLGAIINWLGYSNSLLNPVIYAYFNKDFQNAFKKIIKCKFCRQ

[7] = molecular target: Glutamate [NMDA] receptor (Homo sapiens) (UniProt Q05586+Q12879+Q13224+O15399+O60391+Q14957+Q8TCU5); experiment: Inhibition of agonist site of NMDA receptor at 100 nM; type: functional
[8] = molecular target: 5-hydroxytryptamine receptor 7 (Homo sapiens, UniProt P34969); experiment: Activity at 5HT7 receptor expressed in human corneal epithelial CEPI-17-CL4 cells by adenylyl cyclase assay; type: functional, cell-based, Cornea
[9] = molecular target: T3, 5-hydroxytryptamine receptor 2A (Rattus norvegicus, UniProt P14842); type: tissue-based, Cerebral cortex
[10] = molecular target: Estrogen receptor (Homo sapiens) (UniProt Q92731+P03372); experiment: Inhibition of estrogen receptor at 100 nM; type: protein assay
[11] = molecular target: L-type calcium channel, dihydropyridine site (Homo sapiens, UniProt O60840+Q01668+Q13698+Q13936); experiment: Inhibitory activity at dihydropyridine site of Calcium channel L type at 10 uM; type: protein assay
[12] = molecular target: T4, Type-1 angiotensin II receptor (Homo sapiens) (UniProt P30556); experiment: Inhibition of type 1 angiotensin 2 receptor at 100 nM
T4 sequence (whole entry): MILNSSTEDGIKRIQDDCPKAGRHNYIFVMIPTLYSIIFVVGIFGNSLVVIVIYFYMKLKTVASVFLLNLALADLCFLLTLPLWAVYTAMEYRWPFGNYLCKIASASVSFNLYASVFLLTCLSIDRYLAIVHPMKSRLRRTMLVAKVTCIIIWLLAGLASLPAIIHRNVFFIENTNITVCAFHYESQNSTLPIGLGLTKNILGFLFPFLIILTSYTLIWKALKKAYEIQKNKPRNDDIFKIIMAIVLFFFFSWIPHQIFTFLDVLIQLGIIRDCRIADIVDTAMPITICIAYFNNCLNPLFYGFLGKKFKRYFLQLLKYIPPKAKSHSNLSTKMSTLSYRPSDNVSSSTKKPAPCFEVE

[13] = Inhibition of alpha-bungarotoxin insensitive nicotinic receptor at 1 nM
[14] = molecular target: T5, monoamine oxidase A (MAO-A) (Rattus norvegicus, UniProt P21396); experiment: Inhibition of monoamine oxidase A in rat brain at 10 uM; type: tissue-based
T5 sequence (P21396 whole entry): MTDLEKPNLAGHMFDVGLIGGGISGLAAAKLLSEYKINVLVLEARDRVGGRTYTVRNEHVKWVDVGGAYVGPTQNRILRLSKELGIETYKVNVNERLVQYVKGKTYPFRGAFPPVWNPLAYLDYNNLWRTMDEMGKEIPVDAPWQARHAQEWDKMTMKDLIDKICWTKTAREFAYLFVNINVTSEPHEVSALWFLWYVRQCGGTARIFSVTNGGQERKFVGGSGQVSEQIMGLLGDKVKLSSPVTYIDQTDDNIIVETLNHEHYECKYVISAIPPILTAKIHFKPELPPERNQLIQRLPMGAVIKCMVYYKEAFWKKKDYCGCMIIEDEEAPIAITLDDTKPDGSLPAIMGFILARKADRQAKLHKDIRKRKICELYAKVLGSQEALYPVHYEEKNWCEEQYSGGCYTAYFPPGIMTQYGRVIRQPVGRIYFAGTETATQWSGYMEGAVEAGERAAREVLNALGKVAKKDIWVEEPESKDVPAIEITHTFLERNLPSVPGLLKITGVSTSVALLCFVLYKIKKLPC

[15] = molecular target: Sodium-dependent noradrenaline transporter (Homo sapiens, UniProt P23975); experiment: Inhibition of NET at 100 nM
[16] = molecular target: Adrenergic receptor beta (Homo sapiens) (UniProt P08588+P07550+P13945); experiment: Inhibition of non selective binding to adrenergic beta receptor at 100 nM; type: protein assay
[17] = molecular target: T3, 5-hydroxytryptamine receptor 2A; experiment: (§1) Activity against 5HT2A mediated intracellular calcium mobilization by FLIPR in rat vascular smooth muscle cells; type: functional, cell-based
[18] = molecular target: 5-hydroxytryptamine receptor 2A (Rattus norvegicus) (UniProt P14842); experiment: as §1; type: functional, cell-based
Sequence of 5-hydroxytryptamine receptor 2A (Rattus norvegicus) (P14842 whole entry): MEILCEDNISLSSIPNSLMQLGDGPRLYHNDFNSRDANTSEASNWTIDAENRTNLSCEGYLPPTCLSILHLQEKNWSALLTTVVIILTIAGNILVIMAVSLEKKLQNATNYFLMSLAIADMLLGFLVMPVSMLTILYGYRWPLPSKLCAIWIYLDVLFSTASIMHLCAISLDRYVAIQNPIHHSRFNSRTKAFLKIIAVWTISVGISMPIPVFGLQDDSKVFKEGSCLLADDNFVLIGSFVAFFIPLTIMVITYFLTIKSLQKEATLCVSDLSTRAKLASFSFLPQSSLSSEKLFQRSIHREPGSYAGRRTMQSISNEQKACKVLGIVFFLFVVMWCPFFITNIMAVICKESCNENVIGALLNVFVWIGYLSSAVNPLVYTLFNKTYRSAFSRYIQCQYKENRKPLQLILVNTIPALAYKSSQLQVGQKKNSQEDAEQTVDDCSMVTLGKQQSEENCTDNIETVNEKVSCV

T3 sequence (P14842 whole entry): as above
Sequence of Sodium-dependent noradrenaline transporter (P23975 whole entry): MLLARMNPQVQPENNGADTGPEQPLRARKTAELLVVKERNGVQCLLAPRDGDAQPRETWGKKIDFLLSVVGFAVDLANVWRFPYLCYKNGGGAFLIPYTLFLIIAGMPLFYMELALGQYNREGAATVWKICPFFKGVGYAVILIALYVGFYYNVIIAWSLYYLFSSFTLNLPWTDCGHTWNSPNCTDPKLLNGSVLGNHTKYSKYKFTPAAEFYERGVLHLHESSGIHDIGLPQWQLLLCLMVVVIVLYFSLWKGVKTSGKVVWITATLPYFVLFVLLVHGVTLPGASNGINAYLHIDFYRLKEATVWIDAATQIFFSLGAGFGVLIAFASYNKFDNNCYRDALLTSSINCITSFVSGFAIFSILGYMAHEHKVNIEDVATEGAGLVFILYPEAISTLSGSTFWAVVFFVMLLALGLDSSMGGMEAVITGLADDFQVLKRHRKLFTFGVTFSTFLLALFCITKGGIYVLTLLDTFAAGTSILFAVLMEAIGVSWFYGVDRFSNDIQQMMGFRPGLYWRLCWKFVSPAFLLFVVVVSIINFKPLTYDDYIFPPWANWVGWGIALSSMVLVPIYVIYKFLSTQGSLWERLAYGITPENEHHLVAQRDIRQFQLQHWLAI
Sequence of 5-hydroxytryptamine receptor 7 (P34969 whole entry): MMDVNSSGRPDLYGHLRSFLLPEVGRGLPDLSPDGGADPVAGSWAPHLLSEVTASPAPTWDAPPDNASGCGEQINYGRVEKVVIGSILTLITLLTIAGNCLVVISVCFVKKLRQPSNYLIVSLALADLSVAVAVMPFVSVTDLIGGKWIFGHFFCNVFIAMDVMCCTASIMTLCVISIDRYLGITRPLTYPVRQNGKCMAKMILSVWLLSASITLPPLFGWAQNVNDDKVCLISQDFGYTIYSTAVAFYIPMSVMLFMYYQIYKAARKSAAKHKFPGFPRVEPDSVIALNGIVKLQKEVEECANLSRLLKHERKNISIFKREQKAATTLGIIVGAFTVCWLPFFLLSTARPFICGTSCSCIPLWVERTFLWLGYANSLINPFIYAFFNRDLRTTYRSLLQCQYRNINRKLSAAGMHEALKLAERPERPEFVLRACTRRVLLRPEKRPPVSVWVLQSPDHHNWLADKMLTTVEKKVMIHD

SMILES: C[C@H](N)Cn1ncc2ccc(O)cc21
- inhibition [1]: 6.16%
- inhibition [2]: 18.1%
- pKi [3]: < 5.00
- inhibition [4]: 0.07%
- inhibition [5]: 15.2%
- inhibition [6]: 2.48%
- inhibition [7]: 15.7%
- pEC50 [8]: 5.25
- pIC50 [9]: 9.24
- inhibition [10]: 13.3%
- inhibition at 10 µM [11]: 15.2%
- inhibition [12]: 7.33%
- inhibition [13]: 7.15%
- inhibition at 10 µM [14]: 0.82%
- inhibition [15]: 3.93%
- inhibition [16]: -7.77%
- pEC50 [17]: 7.37
- Emax [18]: 81%
